Patent publication US20240409585A1, “MACROCYCLIC IMMUNOMODULATORS” (priority 2021, published 2024)
Bridge positions count the residues as written; N and C are the ends. Square brackets hold non-standard residues; d marks the D form. Peptide text beside a SMILES is read from it. * marks the point of attachment. ξ: configuration not given here. Bip = N[C@@H](Cc1ccc(-c2ccccc2)cc1)C(=O)O; Phe(3-Cl) = N[C@@H](Cc1cccc(Cl)c1)C(=O)O; Phe(3-OMe) = COc1cccc(C[C@H](N)C(=O)O)c1; Phe(3-Me) = Cc1cccc(C[C@H](N)C(=O)O)c1; Val(3-OH) = CC(C)(O)[C@H](N)C(=O)O; Cha = N[C@@H](CC1CCCCC1)C(=O)O; Cit = NC(=O)NCCC[C@H](N)C(=O)O; Thr(3ξ) = CC(O)[C@H](N)C(=O)O; NEtAla = CCN[C@@H](C)C(=O)O; Carboxymethyl = O=C(O)C*; NMeA = CN[C@@H](C)C(=O)O; Dab = NCC[C@H](N)C(=O)O; Dap = NC[C@H](N)C(=O)O

Biological target: T1, PE-labeled human PD-L1-Ig binding to Jurkat cell line over-expressing human PD-1 (Jurkat-PD-1) (Homo sapiens, UniProt Q15116)
T1 construct: expressed in transfected cells; host or cells: Jurkat
Test: Jurkat-PD-1 Cell Binding High-Content Screening Assay (CBA): Method 1
Settings: Jurkat-hPD-1 cells, PE-labeled PD-L1-Ig 20 nM final; read-out: Jurkat HPDL1 PD1 IC50 (uM) (Method 1)

T1 sequence (Q15116 25-288): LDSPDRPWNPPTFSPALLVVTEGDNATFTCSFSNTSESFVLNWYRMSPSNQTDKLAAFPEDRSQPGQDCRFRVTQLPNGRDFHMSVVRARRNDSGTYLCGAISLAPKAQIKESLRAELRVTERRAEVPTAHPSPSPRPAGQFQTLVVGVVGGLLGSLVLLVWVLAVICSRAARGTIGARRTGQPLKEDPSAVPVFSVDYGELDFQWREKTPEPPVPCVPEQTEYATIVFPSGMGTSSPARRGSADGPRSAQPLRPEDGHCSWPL

| IC50 [µM] | SMILES |
| --- | --- |
| 0.01 | CC(C)C[C@@H]1NC(=O)[C@H](CCN)NC(=O)[C@@H](CC(C)C)NC(=O)[C@H](C)N(C)C(=O)[C@H](C(C)C)NC(=O)[C@H](Cc2ccc(-c3ccccc3)cc2)NC(=O)[C@H](C(C)C)NC(=O)[C@H](Cc2c[nH]c3ccccc23)NC(=O)[C@H](CC(=O)O)NC(=O)[C@H](Cc2ccc(O)cc2)NC(=O)[C@H](CCCNC(=N)N)NC(=O)CSC[C@@H](C(=O)N[C@@H](C)C(N)=O)NC(=O)[C@H]([C@@H](C)O)NC(=O)[C@H](C(C)C)NC1=O [Compound 1394] ({CH2CO}-RYDWV[Bip]V[NMeA][dL][Dab]LVTCA-NH2; thioether N-14) |
| 0.09 | CC(C)C[C@@H]1NC(=O)[C@H](CCN)NC(=O)[C@@H](CC(C)C)NC(=O)[C@H](C)N(C)C(=O)[C@H](C(C)C)NC(=O)[C@H](Cc2ccc(-c3ccccc3)cc2)NC(=O)[C@H](C(C)C)NC(=O)[C@H](Cc2c[nH]c3ccccc23)NC(=O)[C@H](CC(=O)O)NC(=O)[C@H](Cc2cccc(Cl)c2)NC(=O)[C@H](CN)NC(=O)CSC[C@@H](C(=O)N[C@@H](C)C(N)=O)NC(=O)[C@H]([C@@H](C)O)NC(=O)[C@H](C(C)C)NC1=O [Compound 1441] ({CH2CO}-[Dap][Phe(3-Cl)]DWV[Bip]V[NMeA][dL][Dab]LVTCA-NH2; thioether N-14) |
| 0.1 | CC[C@H](C)[C@@H]1NC(=O)[C@H](Cc2ccc(-c3ccccc3)cc2)NC(=O)[C@H](C(C)(C)O)NC(=O)[C@H](Cc2cccc(C)c2)NC(=O)[C@H](CC(=O)O)NC(=O)[C@H](Cc2ccc(O)cc2)NC(=O)[C@H](CC(N)=O)NC(=O)CSC[C@@H](C(=O)N[C@H](C)C(N)=O)NC(=O)[C@H](CCC(=O)O)NC(=O)[C@H](C(C)C)NC(=O)[C@H](CC2CCCCC2)NC(=O)[C@H](CCN)NC(=O)[C@@H](CC(C)C)NC(=O)[C@H](C)N(C)C1=O [Compound 1698] ({CH2CO}-NYD[Phe(3-Me)][Val(3-OH)][Bip]I[NMeA][dL][Dab][Cha]VEC[dA]-NH2; thioether N-14) |
| 0.06 | COc1cccc(C[C@@H]2NC(=O)[C@H](CC(=O)O)NC(=O)[C@H](Cc3ccc(OCC(=O)O)cc3)NC(=O)[C@H](CN)NC(=O)CSC[C@@H](C(=O)N[C@@H](C)C(N)=O)NC(=O)[C@H]([C@@H](C)O)NC(=O)[C@H](C(C)C)NC(=O)[C@H](CC(C)C)NC(=O)[C@H](CCN)NC(=O)[C@@H](CC(C)C)NC(=O)[C@H](C)N(C)C(=O)[C@H](CCCNC(N)=O)NC(=O)[C@H](Cc3ccc(-c4ccccc4)cc3)NC(=O)[C@H](C(C)C)NC2=O)c1 [Compound 1448] ({CH2CO}-[Dap]Y(Carboxymethyl)D[Phe(3-OMe)]V[Bip][Cit][NMeA][dL][Dab]LVTCA-NH2; thioether N-14) |
| 0.07 | CCN1C(=O)[C@H](CCCNC(=N)N)NC(=O)[C@H](Cc2ccc(-c3ccccc3)cc2)NC(=O)[C@H](C(C)C)NC(=O)[C@H](Cc2c[nH]c3ccccc23)NC(=O)[C@H](CC(=O)O)NC(=O)[C@H](Cc2ccc(O)cc2)NC(=O)[C@H](CC(N)=O)NC(=O)CSC[C@@H](C(=O)N[C@@H](C)C(N)=O)NC(=O)[C@H]([C@@H](C)O)NC(=O)[C@H](C(C)C)NC(=O)[C@H](CC(C)C)NC(=O)[C@H](CCN)NC(=O)[C@@H](CC(C)C)NC(=O)[C@@H]1C [Compound 1207] ({CH2CO}-NYDWV[Bip]R[NEtAla][dL][Dab]LVTCA-NH2; thioether N-14) |
| 0.07 | CC(C)C[C@@H]1NC(=O)[C@H](CC(N)=O)NC(=O)[C@@H](CC(C)C)NC(=O)[C@H](C)N(C)C(=O)[C@H](CCCNC(N)=O)NC(=O)[C@H](Cc2ccc(-c3ccccc3)cc2)NC(=O)[C@H](C(C)C)NC(=O)[C@H](Cc2c[nH]c3ccccc23)NC(=O)[C@H](CC(=O)O)NC(=O)[C@H](Cc2ccc(O)cc2)NC(=O)[C@H](Cc2ccccc2)NC(=O)CSC[C@@H](C(=O)N[C@@H](C)C(N)=O)NC(=O)[C@H](C(C)O)NC(=O)[C@H](C(C)C)NC1=O (stereo partly drawn) [Compound 2031] ({CH2CO}-FYDWV[Bip][Cit][NMeA][dL]NLV[Thr(3ξ)]CA-NH2; thioether N-14) |
